Experimental data taken from US20240032533A1 (priority 2020, published 2024).
Read-outs that look alike come from different tables or passages of the source.

Tests used:
Zymoseptoria tritici = experiment: microbe, parasite or virus in culture; type: cell-based; conditions: for inhibition at 0.05 ppm / inhibition at 0.1 ppm / inhibition at 0.5 ppm / inhibition at 1 ppm: Zymoseptoria tritici
Phytophthora infestans = experiment: microbe, parasite or virus in culture; type: cell-based; conditions: for inhibition at 0.05 ppm: read-out: Activity (%) 0.05 ppm; for inhibition at 0.1 ppm: read-out: Activity (%) 0.1 ppm; for inhibition at 0.5 ppm: read-out: Activity (%) 0.5 ppm; for inhibition at 1 ppm: read-out: Activity (%) 1 ppm; for inhibition at 5 ppm: read-out: Activity (%) 5 ppm; for inhibition at 10 ppm: read-out: Activity (%) 10 ppm; for inhibition at 50 ppm: read-out: Activity (%) 50 ppm
Venturia inaequalis = experiment: microbe, parasite or virus in culture; type: cell-based
[1] = system: Plasmopara viticola strain PvS; experiment: Grapevine downy mildew, preventive treatment of detached grapevine leaves / leaf discs; type: in vivo; conditions: 2267 ppm, preventive 24 h, 7 dpi
[2] = system: Phytophthora infestans strain Pi96; type: in vivo; conditions: for Disease Severity Index (%) 3 dpi / Disease Severity Index (%) 7 dpi / Disease Severity Index (%) 5 dpi / Disease Severity Index (%) 10 dpi: preventive 24 h
[3] = Water solubility as a function of pH; type: physicochemical; conditions: increases at pH values below 7.0 and above 7.0

Structure (SMILES)	Activity (%) 0.1 ppm (Zymoseptoria tritici)	inhibition at 0.05 ppm (Zymoseptoria tritici; 0.05 ppm)	inhibition at 0.1 ppm (Zymoseptoria tritici)	inhibition at 0.5 ppm (Zymoseptoria tritici; 0.5 ppm)	inhibition at 1 ppm (Zymoseptoria tritici; 1 ppm)	inhibition at 0.05 ppm (Phytophthora infestans)	inhibition at 0.1 ppm (Phytophthora infestans)	inhibition at 0.5 ppm (Phytophthora infestans)	inhibition at 1 ppm (Phytophthora infestans)	inhibition at 5 ppm (Phytophthora infestans)	inhibition at 10 ppm (Phytophthora infestans)	inhibition at 50 ppm (Phytophthora infestans)	inhibition at 0.1 ppm (Venturia inaequalis)	inhibition at 0.5 ppm (Venturia inaequalis)	inhibition at 1 ppm (Venturia inaequalis)	also measured
CCCCCCCCCCCCCCCCCC[S+](C)C.[I-] [1-5, octadecyl dimethyl sulfonium iodide]	2.7%	–	–	–	–	–	–	–	–	–	–	–	–	–	–	Activity (%) 0.05 ppm (Zymoseptoria tritici; 0.05 ppm): 6.4%; Activity (%) 0.5 ppm (Zymoseptoria tritici; 0.5 ppm): 11.2%; Activity (%) 1 ppm (Zymoseptoria tritici; 1 ppm): 92.7%
N#Cc1c(Cl)c(Cl)c(Cl)c(C#N)c1Cl [Chlorothalonil]	–	4.3%	10%	17.9%	54.7%	-11.8%	-5.8%	-2%	15.3%	99.2%	98.5%	100%	34.3%	88.8%	97.4%	–
CCCCCCCCCCCCNC(=N)N [Dodine]	–	5.2%	21.4%	101%	98.1%	12.5%	12%	59.4%	81.9%	93.8%	95.5%	98.9%	83.2%	98.2%	97.3%	control towards Downy Mildew [1]: full control
CCCCCCCCCCCCCCCCCC[S+](C)C.[Cl-] [ODS-Cl, octadecyl dimethyl sulfonium chloride]	8.8%	6.5%	–	11.5%	91%	6.2%	12.6%	12.5%	12.3%	14.1%	29.3%	98.4%	14.3%	97.4%	97.2%	Disease Severity Index (%) 3 dpi ([2]; 50 ppm): 8.7%; Disease Severity Index (%) 7 dpi ([2]; 50 ppm): 40.0%; Disease Severity Index (%) 3 dpi ([2]; 100 ppm): 5.5%; Disease Severity Index (%) 3 dpi ([2]; 500 ppm): 0.0%; Disease Severity Index (%) 5 dpi ([2]; 500 ppm): 0.0%; Disease Severity Index (%) 7 dpi ([2]; 500 ppm): 0.0%; Disease Severity Index (%) 10 dpi ([2]; 500 ppm): 0.0%; control of the disease (late blight) ([2]; 1000 ppm): full control; Disease Severity Index (%) 3 dpi ([2]; 1000 ppm): 0.0%; Disease Severity Index (%) 5 dpi ([2]; 1000 ppm): 0.0%; Disease Severity Index (%) 7 dpi ([2]; 1000 ppm): 0.0%; Disease Severity Index (%) 10 dpi ([2]; 1000 ppm): 0.0%
CCCCCCCCCCCCCCCCCC[S+](C)C.[Cl-] [octadecyl dimethyl sulfonium chloride]	–	–	–	–	–	–	–	–	–	–	–	–	–	–	–	water solubility, pH dependency [3]: minimum around pH 7.0
